Laboratory results published in patent US20260146035A1, “FUSED BICYCLIC COMPOUNDS AND THEIR USE AS MER AND AXL INHIBITORS” (DONG-A ST CO., LTD., priority 2022, published 2026).
Where two headings read alike, the source gives them in different places.

What was measured:
human AXL (473-end) = molecular target: T1, human AXL (473-end) (Homo sapiens, UniProt P30530); test: HTRF kinase activity biochemical assay, AXL; conditions: 10 μM ATP, 30 minutes pre-incubation
T1 construct: human AXL (473-end); purchased SignalChem, Canada
T1 sequence (P30530 473-894 limits assumed): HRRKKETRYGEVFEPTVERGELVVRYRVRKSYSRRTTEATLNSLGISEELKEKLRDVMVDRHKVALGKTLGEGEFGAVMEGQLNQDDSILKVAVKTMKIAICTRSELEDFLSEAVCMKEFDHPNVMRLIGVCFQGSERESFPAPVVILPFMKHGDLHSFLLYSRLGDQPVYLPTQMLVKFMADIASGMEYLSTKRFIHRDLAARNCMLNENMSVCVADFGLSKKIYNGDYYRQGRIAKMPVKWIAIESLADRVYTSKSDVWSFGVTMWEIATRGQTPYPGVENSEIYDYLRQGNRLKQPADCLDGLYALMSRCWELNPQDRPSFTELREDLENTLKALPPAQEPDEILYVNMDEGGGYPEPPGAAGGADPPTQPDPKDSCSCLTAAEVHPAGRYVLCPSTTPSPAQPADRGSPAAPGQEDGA

human MER (528-end) = molecular target: T2, human MER (528-end) (Homo sapiens, UniProt Q12866); test: HTRF kinase activity biochemical assay, MER; conditions: 10 μM ATP, 30 minutes pre-incubation; read-out: HTRF MERTK IC50
T2 construct: human MER (528-end); purchased Camnabio, Japan
T2 sequence (Q12866 528-999 limits assumed): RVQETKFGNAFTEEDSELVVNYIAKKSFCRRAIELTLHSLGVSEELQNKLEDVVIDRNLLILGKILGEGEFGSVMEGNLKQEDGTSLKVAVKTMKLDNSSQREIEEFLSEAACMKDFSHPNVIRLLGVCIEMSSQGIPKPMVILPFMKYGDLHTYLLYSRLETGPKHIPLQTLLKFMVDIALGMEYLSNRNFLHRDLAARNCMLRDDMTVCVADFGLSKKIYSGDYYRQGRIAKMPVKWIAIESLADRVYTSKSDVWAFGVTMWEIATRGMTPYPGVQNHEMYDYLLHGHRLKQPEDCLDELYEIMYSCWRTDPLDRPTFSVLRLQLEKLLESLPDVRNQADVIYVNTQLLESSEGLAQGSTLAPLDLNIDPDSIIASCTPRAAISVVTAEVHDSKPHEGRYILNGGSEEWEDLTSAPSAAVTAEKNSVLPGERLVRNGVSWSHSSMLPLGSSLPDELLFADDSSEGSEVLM

human TYRO3 (455-end) = molecular target: T3, human TYRO3 (455-end) (Homo sapiens, UniProt Q06418); test: HTRF kinase activity biochemical assay, TYRO3
T3 construct: TYRO3 (455-end); purchased SignalChem, Canada
T3 sequence (Q06418 455-890 limits assumed): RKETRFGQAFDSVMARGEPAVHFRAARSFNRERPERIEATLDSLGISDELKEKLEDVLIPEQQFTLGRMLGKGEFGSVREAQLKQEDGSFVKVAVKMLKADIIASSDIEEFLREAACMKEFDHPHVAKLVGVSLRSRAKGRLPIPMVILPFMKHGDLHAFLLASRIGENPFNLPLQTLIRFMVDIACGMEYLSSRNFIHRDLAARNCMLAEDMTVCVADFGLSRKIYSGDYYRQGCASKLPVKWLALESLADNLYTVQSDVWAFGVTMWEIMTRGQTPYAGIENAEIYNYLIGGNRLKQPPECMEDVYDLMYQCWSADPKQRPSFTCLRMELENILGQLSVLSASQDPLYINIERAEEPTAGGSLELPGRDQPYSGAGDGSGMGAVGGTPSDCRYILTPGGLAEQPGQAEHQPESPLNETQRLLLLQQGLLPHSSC

[1] = 10 μM ATP, 30 minutes pre-incubation, read-out: HTRF TYRO IC50

Row | Structure (SMILES) | IC50 (human AXL (473-end)) [nM] | IC50 (human MER (528-end)) [nM] | IC50 (human TYRO3 (455-end); [1]) [nM] | IC50 (human TYRO3 (455-end)) [nM]
1 | Cn1cc(-c2cnc(N)c(C(=O)N[C@H]3CCC[C@@H]3OCc3ccc(-c4ccc5c(ccn5C(F)F)c4)cc3)c2)cn1 [Example 64, 2-amino-N-[(1S,2S)-2-({4-[1-(difluoromethyl)-1H-indol-5-yl]phenyl}methoxy)cyclopentyl]-5-(1-methyl-1H-pyrazol-4-yl)pyridine-3-carboxamide] | 10 to 100 | < 10 | > 1000 | 
2 | Cn1cc(-c2cnc(N)c(C(=O)N[C@H]3CCC[C@@H]3OCc3ccc(-c4ccc5c(c4)CC(F)(F)[C@@H]5N4CCN(CCO)CC4)cc3)c2)cn1 [Example 65, 2-amino-N-{(1S,2S)-2-[(4-{(1R)-2,2-difluoro-1-[4-(2-hydroxyethyl)piperazin-1-yl]-2,3-dihydro-1H-inden-5-yl}phenyl)methoxy]cyclopentyl}-5-(1-methyl-1H-pyrazol-4-yl)pyridine-3-carboxamide] | < 10 | < 10 | 100 to 1000 | 
3 | Cn1cc(-c2cnc(N)c(C(=O)N[C@H]3CCC[C@@H]3OCc3ccc(-c4ccc5c(c4)CC(F)(F)[C@H]5N4CCN(CCO)CC4)cc3)c2)cn1 [Example 66, 2-amino-N-{(1S,2S)-2-[(4-{(1S)-2,2-difluoro-1-[4-(2-hydroxyethyl)piperazin-1-yl]-2,3-dihydro-1H-inden-5-yl}phenyl)methoxy]cyclopentyl}-5-(1-methyl-1H-pyrazol-4-yl)pyridine-3-carboxamide] | 10 to 100 | 10 to 100 | > 1000 | 
4 | Cn1cc(-c2cnc(N)c(C(=O)N[C@H]3CCC[C@@H]3OCc3ccc(-c4ccc5c(ccn5CCN)c4)cc3)c2)cn1 [Example 67, 2-amino-N-[(1S,2S)-2-({4-[1-(2-aminoethyl)-1H-indol-5-yl]phenyl}methoxy)cyclopentyl]-5-(1-methyl-1H-pyrazol-4-yl)pyridine-3-carboxamide] | < 10 | < 10 | 100 to 1000 | 
5 | Cn1cc(-c2cnc(N)c(C(=O)N[C@H]3CCC[C@@H]3OCc3ccc(-c4ccc5[nH]ccc5c4)cc3)c2)cn1 [Example 68, 2-amino-N-[(1S,2S)-2-{[4-(1H-indol-5-yl)phenyl]methoxy}cyclopentyl]-5-(1-methyl-1H-pyrazol-4-yl)pyridine-3-carboxamide] | < 10 | < 10 | 100 to 1000 | 
6 | Cn1cc(-c2cnc(N)c(C(=O)N[C@H]3CCC[C@@H]3OCc3ccc(-c4ccc5c(c4)NC(=O)C5N4CCN(CCO)CC4)cc3)c2)cn1 (stereo partly drawn) [Example 69, 2-amino-N-{(1S,2S)-2-[(4-{3-[4-(2-hydroxyethyl)piperazin-1-yl]-2-oxo-2,3-dihydro-1H-indol-6-yl}phenyl)methoxy]cyclopentyl}-5-(1-methyl-1H-pyrazol-4-yl)pyridine-3-carboxamide] | 100 to 1000 | 100 to 1000 | > 1000 | 
7 | CN(C)CCn1ccc2cc(-c3ccc(CO[C@H]4CCC[C@@H]4NC(=O)c4cc(-c5cnn(C)c5)cnc4N)cc3)ccc21 [Example 70, 2-amino-N-{(1S,2S)-2-[(4-{1-[2-(dimethylamino)ethyl]-1H-indol-5-yl}phenyl)methoxy]cyclopentyl}-5-(1-methyl-1H-pyrazol-4-yl)pyridine-3-carboxamide] | < 10 | < 10 | 100 to 1000 | 
8 | Cn1cc(-c2cnc(N)c(C(=O)N[C@H]3COC[C@@H]3OCc3ccc(-c4ccc5c(c4)C(C)(C)CN5C4CCN(CCO)CC4)cc3)n2)cn1 [Example 71, 3-amino-N-{(3S,4R)-4-[(4-{1-[1-(2-hydroxyethyl)piperidin-4-yl]-3,3-dimethyl-2,3-dihydro-1H-indol-5-yl}phenyl)methoxy]oxolan-3-yl}-6-(1-methyl-1H-pyrazol-4-yl)pyrazine-2-carboxamide] | 10 to 100 | < 10 | 100 to 1000 | 
9 | Cn1cc(-c2cnc(N)c(C(=O)N[C@H]3CCC[C@@H]3OCc3ccc(-c4ccc5c(c4)C4(CC4)CN(C4CCN(CCO)CC4)C5)cc3)c2)cn1 [Example 72, 2-amino-N-{(1S,2S)-2-[(4-{2′-[1-(2-hydroxyethyl)piperidin-4-yl]-2′,3′-dihydro-1′H-spiro[cyclopropane-1,4′-isoquinolin]-6′-yl}phenyl)methoxy]cyclopentyl}-5-(1-methyl-1H-pyrazol-4-yl)pyridine-3-carboxamide] | > 1000 | 100 to 1000 | > 1000 | 
10 | Cn1cc(-c2cnc(N)c(C(=O)N[C@H]3CCC[C@@H]3OCc3ccc(-c4ccc5c(n4)C(C)(C)C(=O)N5C4CCN(CCO)CC4)cc3)c2)cn1 [Example 73, 2-amino-N-{(1S,2S)-2-[(4-{1-[1-(2-hydroxyethyl)piperidin-4-yl]-3,3-dimethyl-2-oxo-2,3-dihydro-1H-pyrrolo[3,2-b]pyridin-5-yl}phenyl)methoxy]cyclopentyl}-5-(1-methyl-1H-pyrazol-4-yl)pyridine-3-carboxamide] | > 1000 | 100 to 1000 |  | 100 to 1000
11 | CC1(C)C(=O)N(C2CCN(CCO)CC2)c2ccc(-c3ccc(CO[C@H]4CCC[C@@H]4NC(=O)c4cc(-c5ccc(F)nc5)cnc4N)cc3)nc21 [Example 74, 6-amino-6′-fluoro-N-{(1S,2S)-2-[(4-{1-[1-(2-hydroxyethyl)piperidin-4-yl]-3,3-dimethyl-2-oxo-2,3-dihydro-1H-pyrrolo[3,2-b]pyridin-5-yl}phenyl)methoxy]cyclopentyl}[3,3′-bipyridine]-5-carboxamide] | > 1000 | 100 to 1000 |  | 100 to 1000
12 | Nc1ncc(-c2ccc(F)nc2)cc1C(=O)N[C@H]1CCC[C@@H]1OCc1ccc(-c2ccc3c(c2)C2(CC2)CN(C2CCN(CCO)CC2)C3)cc1 [Example 75, 6-amino-6′-fluoro-N-{(1S,2S)-2-[(4-{2′-[1-(2-hydroxyethyl)piperidin-4-yl]-2′,3′-dihydro-1′H-spiro[cyclopropane-1,4′-isoquinolin]-6′-yl}phenyl)methoxy]cyclopentyl}[3,3′-bipyridine]-5-carboxamide] | > 1000 | > 1000 | > 1000 | 
13 | Cn1cc(-c2cnc(N)c(C(=O)N[C@H]3CCC[C@@H]3OCc3ccc(-c4cnc5c(c4)C(C)(C)C(=O)N5C4CCN(CCO)CC4)cc3)c2)cn1 [Example 76, 2-amino-N-{(1S,2S)-2-[(4-{1-[1-(2-hydroxyethyl)piperidin-4-yl]-3,3-dimethyl-2-oxo-2,3-dihydro-1H-pyrrolo[2,3-b]pyridin-5-yl}phenyl)methoxy]cyclopentyl}-5-(1-methyl-1H-pyrazol-4-yl)pyridine-3-carboxamide] | 100 to 1000 | 10 to 100 |  | 100 to 1000
14 | Cn1cc(-c2cnc(N)c(C(=O)N[C@H]3CCC[C@@H]3OCc3ccc(-c4cnc5c(c4)C(C)(C)CN5C4CCN(CCO)CC4)cc3)c2)cn1 [Example 77, 2-amino-N-{(1S,2S)-2-[(4-{1-[1-(2-hydroxyethyl)piperidin-4-yl]-3,3-dimethyl-2,3-dihydro-1H-pyrrolo[2,3-b]pyridin-5-yl}phenyl)methoxy]cyclopentyl}-5-(1-methyl-1H-pyrazol-4-yl)pyridine-3-carboxamide] | < 10 | < 10 | 10 to 100 | 
15 | CC1(C)OCC(CN2CCN(C3CCc4cc(-c5ccc(CO[C@H]6CCC[C@@H]6NC(=O)c6cc(-c7ccc(F)nc7)cnc6N)cc5)ccc43)CC2)O1 (stereo partly drawn) [Example 78, 6-amino-N-[(1S,2S)-2-{[4-(1-{4-[(2,2-dimethyl-1,3-dioxolan-4-yl)methyl]piperazin-1-yl}-2,3-dihydro-1H-inden-5-yl)phenyl]methoxy}cyclopentyl]-6′-fluoro[3,3′-bipyridine]-5-carboxamide] | 10 to 100 | < 10 | > 1000 | 
